The subject of test [1] is IL-1β production in PMA-differentiated THP-1 cells. Put plainly: Measurement of IL-1β production in PMA-differentiated THP-1 cells (ELISA, 4 hours). The format is cell-based, human. The settings on record: Homo sapiens, THP-1, human IL-1β production, assayed using one or more of the described procedures, read-out: NLRP3 hIL1B IC50. A digest of the protocol:
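IL-1β released into supernatant was measured by ELISA after a 4-hour compound exposure (final DMSO 1%, concentrations such as 100 down to 0.1 μM). Cells: THP-1 pretreated 24 h with 10 μg/ml PMA, then trypsinized and seeded at 1×10^6/ml in 2% FBS RPMI.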
(ELISA stands for enzyme-linked immunosorbent assay.)

The target in the next test is T1, human TLR7 (Homo sapiens, UniProt Q9NYK1).
T1 construct: host or cells: human HEK-Blue cells (HEK293-derived) co-expressing TLR7 and an NF-kB/AP1-inducible SEAP reporter
T1 sequence (Q9NYK1 27-1049): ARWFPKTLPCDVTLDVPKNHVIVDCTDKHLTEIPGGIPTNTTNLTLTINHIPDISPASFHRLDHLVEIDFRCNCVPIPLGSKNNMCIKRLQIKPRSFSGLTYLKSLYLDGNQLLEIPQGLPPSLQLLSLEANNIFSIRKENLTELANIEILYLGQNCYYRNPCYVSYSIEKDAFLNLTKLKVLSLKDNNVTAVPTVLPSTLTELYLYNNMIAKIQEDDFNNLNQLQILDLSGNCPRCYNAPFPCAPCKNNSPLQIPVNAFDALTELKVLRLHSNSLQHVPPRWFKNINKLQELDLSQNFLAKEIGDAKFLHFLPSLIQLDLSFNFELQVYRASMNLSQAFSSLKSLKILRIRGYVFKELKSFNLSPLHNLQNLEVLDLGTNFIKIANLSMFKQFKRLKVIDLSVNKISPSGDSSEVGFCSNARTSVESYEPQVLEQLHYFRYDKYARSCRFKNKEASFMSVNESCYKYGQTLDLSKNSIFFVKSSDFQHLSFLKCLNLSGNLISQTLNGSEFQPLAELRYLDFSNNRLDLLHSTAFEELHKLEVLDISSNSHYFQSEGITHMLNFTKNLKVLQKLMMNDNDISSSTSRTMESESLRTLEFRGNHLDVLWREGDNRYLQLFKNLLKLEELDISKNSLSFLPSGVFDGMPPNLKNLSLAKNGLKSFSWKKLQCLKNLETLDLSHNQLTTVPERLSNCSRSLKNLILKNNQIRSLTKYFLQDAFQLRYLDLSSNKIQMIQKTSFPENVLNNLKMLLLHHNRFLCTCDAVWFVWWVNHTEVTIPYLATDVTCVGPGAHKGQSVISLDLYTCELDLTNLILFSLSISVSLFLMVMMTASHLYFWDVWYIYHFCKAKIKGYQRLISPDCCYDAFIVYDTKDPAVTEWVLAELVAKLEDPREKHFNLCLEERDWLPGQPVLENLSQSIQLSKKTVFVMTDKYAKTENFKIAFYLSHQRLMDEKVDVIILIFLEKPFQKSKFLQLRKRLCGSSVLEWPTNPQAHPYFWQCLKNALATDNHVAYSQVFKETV
Put plainly: In vitro human TLR7 binding reporter assay (HEK-Blue, NF-kB/AP1-inducible SEAP). The format is cell-based. The following applies: HEK-Blue human TLR7 SEAP reporter cells; activity range classes; read-out: TLR7 Agonist EC50. A digest of the protocol:
(§1)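 HEK-Blue cells expressing human TLR7 or TLR8 with NF-kB/AP1-inducible SEAP reporter, plated 24 h, then compound-treated 18 h at 37° C, 5% CO2. EC50 normalized to 100% Ymax set by 50 μM reference standard.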

In a further test the target is T2, human TLR8 (Homo sapiens, UniProt Q9NR97).
T2 construct: host or cells: human HEK-Blue cells (HEK293-derived) co-expressing TLR8 and an NF-kB/AP1-inducible SEAP reporter
T2 sequence (Q9NR97 27-1041): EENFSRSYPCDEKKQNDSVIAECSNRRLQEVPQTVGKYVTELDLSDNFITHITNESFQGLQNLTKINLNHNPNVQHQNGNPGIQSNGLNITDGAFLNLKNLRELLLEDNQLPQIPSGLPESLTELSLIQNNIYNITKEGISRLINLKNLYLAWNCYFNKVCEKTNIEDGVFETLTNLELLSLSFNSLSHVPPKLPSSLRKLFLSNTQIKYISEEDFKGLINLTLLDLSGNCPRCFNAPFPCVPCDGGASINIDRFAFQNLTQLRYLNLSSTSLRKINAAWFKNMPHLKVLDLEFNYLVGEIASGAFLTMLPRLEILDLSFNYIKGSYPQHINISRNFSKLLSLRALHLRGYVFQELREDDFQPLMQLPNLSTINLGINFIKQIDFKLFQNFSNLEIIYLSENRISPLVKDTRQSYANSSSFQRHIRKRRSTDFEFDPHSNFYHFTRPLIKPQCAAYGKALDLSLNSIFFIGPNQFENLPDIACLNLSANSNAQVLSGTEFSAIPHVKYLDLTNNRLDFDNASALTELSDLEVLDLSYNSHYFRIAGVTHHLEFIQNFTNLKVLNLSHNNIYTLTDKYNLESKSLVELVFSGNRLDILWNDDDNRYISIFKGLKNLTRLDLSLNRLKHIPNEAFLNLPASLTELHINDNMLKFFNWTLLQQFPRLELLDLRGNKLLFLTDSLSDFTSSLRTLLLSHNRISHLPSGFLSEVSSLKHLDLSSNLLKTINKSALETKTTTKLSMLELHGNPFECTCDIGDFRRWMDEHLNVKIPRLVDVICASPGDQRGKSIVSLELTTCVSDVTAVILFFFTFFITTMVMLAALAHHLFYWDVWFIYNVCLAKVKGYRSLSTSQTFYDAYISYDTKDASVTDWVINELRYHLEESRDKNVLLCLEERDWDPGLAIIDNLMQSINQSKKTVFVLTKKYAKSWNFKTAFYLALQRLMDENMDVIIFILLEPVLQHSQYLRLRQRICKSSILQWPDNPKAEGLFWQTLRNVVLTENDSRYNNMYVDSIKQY
Put plainly: In vitro human TLR8 binding reporter assay (HEK-Blue, NF-kB/AP1-inducible SEAP). It is filed as cell-based. The settings on record: HEK-Blue human TLR8 SEAP reporter cells; activity range classes; read-out: TLR8 Agonist EC50. A digest of the protocol:
as §1

For the compound `Nc1cc(NCCc2cccnn2)c2ccc(-c3cccs3)cc2n1` [Compound 342, N4-(2-(pyridazin-3-yl)ethyl)-7-(thiophen-2-yl)quinolin-2,4-diamine], the IC50 (usually the concentration that inhibits the measured activity by half) in test [1] came to 1.1 µM. For the same compound, the EC50 at human TLR7 and on human TLR8 was over 100 µM in each case.
For `Nc1cc(NCCc2cccnn2)c2ccc(-n3cccn3)cc2n1` [Compound 343, 7-(1H-pyrazol-1-yl)-N4-(2-(pyridazin-3-yl)ethyl)quinoline-2,4-diamine], the IC50 in test [1] was found to be 0.61 µM. Also, the 50% effective concentration (EC50) at human TLR7 and on human TLR8 was over 100 µM throughout.
For the compound `Nc1cc(NCCC2CCOCC2)c2ccc(-c3cc[nH]n3)cc2n1` [Compound 344, 7-(1H-pyrazol-3-yl)-N4-(2-(tetrahydro-2H-pyran-4-yl)ethyl)quinoline-2,4-diamine], the concentration for half-maximal inhibition (IC50) in test [1] is 1.11 µM. In addition, the EC50 at human TLR7 and at human TLR8 was over 100 µM each time.
`Nc1cc(NCCC2CCOCC2)c2ccc(-c3ccsc3)cc2n1` [Compound 345, N4-(2-(tetrahydro-2H-pyran-4-yl)ethyl)-7-(thiophen-3-yl)quinoline-2,4-diamine]: the IC50 in test [1] came out at 1.77 µM. For the same compound, the EC50 on human TLR7 and at human TLR8 was over 100 µM each time.
`Nc1cc(-c2cn[nH]c2)c2ccc(-c3ccn[nH]3)cc2n1` [Compound 347, 4-(1H-pyrazol-4-yl)-7-(1H-pyrazol-5-yl)quinolin-2-amine]: in test [1], the IC50 is 1.18 µM. The concentration for a half-maximal effect (EC50) at human TLR7 and on human TLR8 was over 100 µM each time.
As for `Nc1cc(-c2cnn(CCO)c2)c2ccc(-c3ccn[nH]3)cc2n1` [Compound 348, 2-(4-(2-amino-7-(1H-pyrazol-5-yl)quinolin-4-yl)-1H-pyrazol-1-yl)ethan-1-ol], the IC50 in test [1] stood at 7.26 µM. Also, the EC50 on human TLR7 and on human TLR8 was over 100 µM each time.
As for `Nc1cc(OC[C@H](O)CN2CCOCC2)c2ccc(-c3ccn[nH]3)cc2n1` [Compound 349, (R)-1-((2-amino-7-(1H-pyrazol-5-yl)quinolin-4-yl)oxy)-3-morpholinopropan-2-ol], in test [1], the 50% inhibitory concentration (IC50) is 5.8 µM. Further, the EC50 at human TLR7 and on human TLR8 was over 100 µM throughout.
For `Nc1cc(NCCC(=O)N2CCOCC2)c2ccc(-c3ccn[nH]3)cc2n1` [Compound 350, 3-((2-amino-7-(1H-pyrazol-5-yl)quinolin-4-yl)amino)-1-morpholinopropan-1-one], the IC50 in test [1] amounted to 4.19 µM. The EC50 on human TLR7 and on human TLR8 was over 100 µM in each case.

The record behind these values is patent publication US12171756B2, “NLRP3 modulators” (Innate Tumor Immunity, Inc., priority 2017, dated 2024).
